Test results from US8383785B2, “Anti-bacterial activity of 9-hydroxy derivatives of 6,11-bicyclolides” (Enanta Pharmaceuticals, Inc., priority 2008, dated 2013).

Experiments:
[1] = tested on: H. influenzae strain 33929; test: MIC by micro-dilution method, H. influenzae strain 33929; type: cell-based, Haemophilus influenzae; conditions: compounds of the invention (scaffold drawing 61, 9-hydroxy); 24 hours, 35+/-2° C.
Experimental: (§1) Susceptibility tests can be used to quantitatively measure the in vitro activity of an antimicrobial agent against a given bacterial isolate. Compounds are tested for in vitro antibacterial activity by a micro-dilution method. Minimal Inhibitory Concentration (MIC) is determined in 96 well microtiter plates utilizing the appropriate broth medium for the observed bacterial isolates. Antimicrobial agents are serially diluted (2-fold) in DMSO to produce a concentration range from about 64 μg/ml to about 0.03 μg/ml. The diluted compounds (2 μl/well) are then transferred into sterile, uninoculated medium (0.2 mL) by use of a 96 fixed tip-pipetting station. The inoculum for each bacterial strain is standardized to approximately 5×10^5 CFU/mL by optical comparison to a 0.5 McFarland turbidity standard. The plates are inoculated with 10 μl/well of adjusted bacterial inoculum. The 96 well plates are covered and incubated at 35+/−2° C. for 24 hours in ambient air environment. Following incubation, plate wells are visually examined by Optical Density measurement for the presence of growth (turbidity). The lowest concentration of an antimicrobial agent at which no visible growth occurs is defined as the MIC.
(§2) All in vitro testing follows the guidelines described in the Approved Standards M7-A7 protocol, published by the Clinical Laboratory Standards Institute (CLSI).
(§3) Table II below provides MIC data for compounds of the invention and related species from U.S. Pat. No. 6,878,691 and US Published Application No. 2009/0118506, each of which is incorporated herein by reference. The values in the table are minimum inhibition concentration (MIC) and are expressed as ug/mL.

[2] = tested on: H. influenzae strain 49247; test: MIC by micro-dilution method, H. influenzae strain 49247; type: cell-based, Haemophilus influenzae; conditions: compounds of the invention (scaffold drawing 61, 9-hydroxy); 24 hours, 35+/-2° C.
Experimental: as §1, §2, §3

Compound | H. influenzae MIC strain 33929 [1] [µg/mL] | H. influenzae MIC strain 49247 [2] [µg/mL]
CCC1OC(=O)C(C)(F)C(=O)C(C)C(OC2OC(C)CC(N(C)C)C2O)C2(C)CC(C)C(O)C(C)C(OCC(=NOCc3ccc(-c4ccno4)nc3)CO2)C1(C)O (mixture of isomers) [Compound 13] | 2 | 1
CCC1OC(=O)C(C)(F)C(=O)C(C)C(OC2OC(C)CC(N(C)C)C2O)C2(C)CC(C)C(O)C(C)C(OCC(=NOCc3coc(-c4cccc(N)n4)n3)CO2)C1(C)O (mixture of isomers) [Compound 14] | 2 | 1
CCC1OC(=O)C(C)(F)C(=O)C(C)C(OC2OC(C)CC(N(C)C)C2O)C2(C)CC(C)C(O)C(C)C(OCC(=NOCc3ccc(-c4nc(N)cs4)cc3)CO2)C1(C)O (mixture of isomers) [Compound 15] | 4 | 4
CCC1OC(=O)C(C)(F)C(=O)C(C)C(OC2OC(C)CC(N(C)C)C2O)C2(C)CC(C)C(O)C(C)C(OCC(=NOCc3ccc(-c4nccs4)cn3)CO2)C1(C)O (mixture of isomers) [Compound 16] | 2 | 
CCC1OC(=O)C(C)(F)C(=O)C(C)C(OC2OC(C)CC(N(C)C)C2O)C2(C)CC(C)C(O)C(C)C(OCC(=NOCc3csc(-c4cccc(N)n4)n3)CO2)C1(C)O (mixture of isomers) [Compound 17] | 1 | 1
CCC1OC(=O)C(C)(F)C(=O)C(C)C(OC2OC(C)CC(N(C)C)C2O)C2(C)CC(C)C(O)C(C)C(OCC(=NOCc3ccc(-c4nc(N)cs4)nc3)CO2)C1(C)O (mixture of isomers) [Compound 18] | 2 | 1
CC[C@H]1OC(=O)[C@H](C)C(=O)[C@H](C)[C@@H](O[C@@H]2O[C@H](C)C[C@H](N(C)C)[C@H]2O)[C@@]2(C)C[C@@H](C)[C@H](O)[C@H](C)C(OCC(=NOCc3ccc(-c4nc(N)ns4)cn3)CO2)[C@]1(C)O [Compound 2] | 1 | 1
CC[C@H]1OC(=O)[C@H](C)C(=O)[C@H](C)[C@@H](O[C@@H]2O[C@H](C)C[C@H](N(C)C)[C@H]2O)[C@@]2(C)C[C@@H](C)[C@H](O)[C@H](C)C(OCC(=NOCc3ccc(-c4nc(N)cs4)cn3)CO2)[C@]1(C)O [Compound 3] | 4 | 2
CC[C@H]1OC(=O)[C@H](C)C(=O)[C@H](C)[C@@H](O[C@@H]2O[C@H](C)C[C@H](N(C)C)[C@H]2O)[C@@]2(C)C[C@@H](C)[C@H](O)[C@H](C)C(OCC(=NOCc3ccc(-c4ccno4)nc3)CO2)[C@]1(C)O [Compound 4] | 1 | 1
CC[C@H]1OC(=O)[C@H](C)C(=O)[C@H](C)[C@@H](O[C@@H]2O[C@H](C)C[C@H](N(C)C)[C@H]2O)[C@@]2(C)C[C@@H](C)[C@H](O)[C@H](C)C(OCC(=NOCc3ccc(-n4ccc(N)n4)cn3)CO2)[C@]1(C)O [Compound 5] | 2 | 2
CC[C@H]1OC(=O)[C@H](C)C(=O)[C@H](C)[C@@H](O[C@@H]2O[C@H](C)C[C@H](N(C)C)[C@H]2O)[C@@]2(C)C[C@@H](C)[C@H](O)[C@H](C)C(OCC(=NOCc3cccc(-c4cccc(N)n4)n3)CO2)[C@]1(C)O [Compound 6] | 1 | 1
CC[C@H]1OC(=O)[C@H](C)C(=O)[C@H](C)[C@@H](O[C@@H]2O[C@H](C)C[C@H](N(C)C)[C@H]2O)[C@@]2(C)C[C@@H](C)[C@H](O)[C@H](C)C(OCC(=NOCc3ccc(-n4ccc(N)n4)nc3)CO2)[C@]1(C)O [Compound 7] | 1 | 1
CC[C@H]1OC(=O)[C@H](C)C(=O)[C@H](C)[C@@H](O[C@@H]2O[C@H](C)C[C@H](N(C)C)[C@H]2O)[C@@]2(C)C[C@@H](C)[C@H](O)[C@H](C)C(OCC(=NOCc3ncc(-c4cccc(N)n4)s3)CO2)[C@]1(C)O [Compound 8] | 2 | 1
CC[C@H]1OC(=O)[C@H](C)C(=O)[C@H](C)[C@@H](O[C@@H]2O[C@H](C)C[C@H](N(C)C)[C@H]2O)[C@@]2(C)C[C@@H](C)[C@H](O)[C@H](C)C(OCC(=NOCc3csc(-c4cccc(N)n4)n3)CO2)[C@]1(C)O [Compound 9] | 1 | 1
CC[C@H]1OC(=O)[C@@](C)(F)C(=O)[C@H](C)[C@@H](O[C@@H]2O[C@H](C)C[C@H](N(C)C)[C@H]2O)[C@@]2(C)C[C@@H](C)[C@H](O)[C@H](C)C(OCC(=NOCc3ccc(-c4nc(N)cs4)cn3)CO2)[C@]1(C)O [Compound 10] | 4 | 1
CC[C@H]1OC(=O)[C@@](C)(F)C(=O)[C@H](C)[C@@H](O[C@@H]2O[C@H](C)C[C@H](N(C)C)[C@H]2O)[C@@]2(C)C[C@@H](C)[C@H](O)[C@H](C)C(OCC(=NOCc3ncc(-c4cccc(N)n4)s3)CO2)[C@]1(C)O [Compound 11] | 1 | 1
CC[C@H]1OC(=O)[C@@](C)(F)C(=O)[C@H](C)[C@@H](O[C@@H]2O[C@H](C)C[C@H](N(C)C)[C@H]2O)[C@@]2(C)C[C@@H](C)[C@H](O)[C@H](C)C(OCC(=NOCc3cnc(-c4cccc(N)n4)s3)CO2)[C@]1(C)O [Compound 12] | 2 | 1
